Assay results from patent US20040116652A1, “Method for producing and using novel human defensins as biologically active proteins for treating infections and other diseases” (priority 2000, published 2004).
Bridge positions count the residues as written; N and C are the ends. Ends that are not written are not given here.

Experiments:
Test in all cases: radial diffusion assay, antimicrobial effect
Assay type in all cases: cell-based
Design in all cases: key: (+) means the formation of an inhibition halo; (−) means no formation of an inhibition halo
Escherichia coli = tested on: Escherichia coli
Description: (§1) In a radial diffusion assay, the activities stated in Table 1 could be measured for the peptides against different bacterial strains. In the Table, (+) means the formation of an inhibition halo, and (−) means no formation of an inhibition halo.

Saccharomyces cerevisiae = tested on: Saccharomyces cerevisiae
Description: as §1

Staphylococcus carnosus = tested on: Staphylococcus carnosus
Description: as §1

**Q.** How did the “formation of an inhibition halo” value (Escherichia coli) turn out when “FIGLRRCLMGLGRCRDHCNVDEKEIQKCKMKKCCVGPKVVKLIK (disulfide 7-33, 14-28, 18-34) [hBD19]” was run?
**A.** (+)

**Q.** What about the “formation of an inhibition halo” value (Saccharomyces cerevisiae) of the same sequence?
**A.** (−)

**Q.** And the “formation of an inhibition halo” value (Staphylococcus carnosus)?
**A.** (+)

**Q.** For “NTICHMQQGICRLFFCHSGEKKRGICSDPWNRCCVSNTDEEGKEKPEMD (disulfide 4-33, 11-26, 16-34) [hBD10]”, which “formation of an inhibition halo” value (Escherichia coli) is on record?
**A.** (+)

**Q.** And the “formation of an inhibition halo” value (Saccharomyces cerevisiae)?
**A.** (+)

**Q.** What about the “formation of an inhibition halo” value (Staphylococcus carnosus) of the same sequence?
**A.** (+)

**Q.** With “TPGGTQRCWNLYGKCRYRCSKKERVYVYCINNKMCCVKPKYQPKERWWPF (disulfide 8-35, 15-29, 19-36) [hBD17]” as the sequence, how does the “formation of an inhibition halo” value (Escherichia coli) read?
**A.** (+)

**Q.** What about the “formation of an inhibition halo” value (Saccharomyces cerevisiae) of the same sequence?
**A.** (+)

**Q.** And the “formation of an inhibition halo” value (Staphylococcus carnosus)?
**A.** (+)
